Experimental data from patent US9868737B2, “Pyridino[1,2-A]pyrimidone analogue used as MTOR/P13K inhibitor” (CISEN PHARMACEUTICAL CO., LTD., priority 2014, dated 2018).
Read-outs that look alike come from different tables or passages of the source.

Test system: MCF-7 cells
Test: In vitro test of cell activity (MCF-7 cells, insulin stimulation, ELISA-One fluorescence)
Format: cell-based
Conditions: Homo sapiens, MCF7, MCF-7 cells; for inhibition at 0.25 µM: conc. 0.25 μM; for inhibition at 0.5 µM: conc. 0.5 μM
Description: Example In Vitro Tests of Cell Activities Experimental Steps and Methods:
1) MCF-7 cells were inoculated at the density of 2.5×10^4 cells/well into 96-well plates (the culture medium used should be a complete culture medium containing 10% FBS).
2) On the next day, the medium in each well was drawn out. A certain concentration (preliminary screening) or a series of concentration (IC50 test) of compounds were dissolved in a culture medium without serum and added to the 96-well plates to culture cells for 2 hours.
3) Insulin was dissolved in a culture medium without serum, added to the cultured cells and incubated for 30 minutes, wherein the final concentration of insulin was […].
4) A lysis solution was prepared according to the following method during the waiting period for the reaction:
a) Enhancer solution was removed from the refrigerator to melt in advance.
b) Enhancer solution was diluted 10 times with the 5× Lysis Buffer to give a concentrated lysis solution.
c) The concentrated lysis solution was diluted 5 times with double distilled water to give the lysis solution.
5) The medium in each well was completely removed and each well was quickly rinsed with PBS once.
6) 150 μl of the freshly prepared lysis solution was added to each well and shaked at room temperature for 10 minutes.
7) After confirming that all cells were detached, the lysis solution together with the cell fragments was transferred into a 1.5 ml tube.
8) The tube was shaked on vortes mixer to make the lysis solution and cells mix completely and then the mixture was centrifugated at 4° C. under 12000 g for 10 minutes.
9) The number of strips of ELISA-one micro-well plate that is required was calculated. The needless strips were removed from the frame, put back into the storage bag and sealed. Before the strips of micro-well plate were used, 200 μl of double distilled water was used to rinse each well to remove preservative.
10) 50 μl of antibody mixture was added to each well. (The antibody mixture solution was prepared by mixing the medium antibody reagent and the enzyme labeled antibody reagent with an equal proportion. The preparation of antibody mixture didn't need vortex.)
11) 25 μl of cell lysates was added to each well of ELISA-One micro-well plate. The micro-well plate was covered with adhesive sealing film and incubated on a micro-well plate oscillation instrument at room temperature for 1 hour.
12) Each well was rinsed with 150 μl of 1× rinsing buffer 3 times. After the last rinsing, the rinsing buffer in the well was completely removed. If necessary, the 1× rinsing buffer could be allowed to stay in the micro-well plate for up to 30 minutes so that the substrate mixed solution could be prepared during such time period.
13) The substrate mixed solution should be prepared just before each use, 10 μl of the substrate mixed solution was added to each well and the micro-well plate was sealed with tin-foil and incubated on the micro-well plate oscillation instrument at room temperature for 10 minutes.
14) 10 μl of stop solution was added to each well and mixed slightly (5-10 seconds) on the micro-well plate oscillation instrument.
15) The corresponding ELISA-One filter group was assembled and used to read the fluorescence signal intensity.

Row | SMILES | IC50 (read-out: IC50 p-AKT) [nM] | inhibition at 0.25 µM (read-out: % inhibition AKT) [%] | inhibition at 0.25 µM (read-out: % inhibition p70s6k) [%] | inhibition at 0.5 µM (read-out: % inhibition AKT) [%] | inhibition at 0.5 µM (read-out: % inhibition p70s6k) [%] | IC50 (read-out: IC50 p-p70S6K) [nM]
1 | COc1ncc(-c2ccc3ncc(NS(C)(=O)=O)c(=O)n3c2)cc1NS(=O)(=O)c1ccc(F)cc1F [compound 98] | > 250 |  |  |  |  | 
2 | COCCNc1cnc2ccc(-c3cnc(OC)c(NS(=O)(=O)c4sc(C)nc4C)c3)cn2c1=O [compound 99] | ≤ 50 |  |  |  |  | 
3 | COc1ncc(-c2ccc3ncc(O)c(=O)n3c2)cc1NS(=O)(=O)c1ccc(F)cc1F [compound 101, 2,4-difluoro-N-(5-(3-hydroxy-4-oxo-4H-pyrido[1,2-a]pyrimidin-7-yl)-2-methoxypyridin-3-yl) benzsulfamide] |  | 25 | 8.6 |  |  | 
4 | COc1ncc(-c2ccc3ncc(O)c(=O)n3c2)cc1NS(=O)(=O)c1ccccc1Cl [compound 102] |  | 37.3 | 18.2 |  |  | 
5 | COc1ncc(-c2ccc3ncc(OC)c(=O)n3c2)cc1NS(=O)(=O)c1ccc(F)cc1F [compound 103, 2,4-difluoro-N-(2-methoxy-5-(3-methoxy-4-oxo-4H-pyrido[1,2-a]pyrimidin-7-yl)pyridin-3-yl) benzsulfamide] | ≤ 50 |  |  | 94.5 | 89.4 | 50 to 100
6 | COc1ncc(-c2ccc3ncc(OC)c(=O)n3c2)cc1NS(=O)(=O)c1ccccc1Cl [compound 105] | ≤ 50 |  |  | 95.4 | 90.3 | ≤ 50
7 | COc1ncc(-c2ccc3ncc(OC)c(=O)n3c2)cc1NS(=O)(=O)c1ccc(F)cc1C [compound 106] | ≤ 50 |  |  | 96.2 | 91.8 | 50 to 100
8 | COc1ncc(-c2ccc3ncc(OC)c(=O)n3c2)cc1NS(=O)(=O)c1ccccc1F [compound 107] | ≤ 50 |  |  | 94.5 | 91 | 50 to 100
9 | COc1ncc(-c2ccc3ncc(OC)c(=O)n3c2)cc1NS(=O)(=O)c1ccc(Cl)s1 [compound 108] | ≤ 50 | 92.4 | 82.5 |  |  | ≤ 50
10 | COc1ncc(-c2ccc3ncc(OC)c(=O)n3c2)cc1NS(=O)(=O)c1sc(N)nc1C [compound 109] | ≤ 50 |  |  |  |  | 
11 | COc1ncc(-c2ccc3ncc(OC)c(=O)n3c2)cc1NS(=O)(=O)c1sccc1C [compound 110] | 50 to 100 |  |  |  |  | 
12 | COc1ncc(-c2ccc3ncc(OC)c(=O)n3c2)cc1NS(=O)(=O)c1sc(C)nc1C [compound 111] | ≤ 50 |  |  |  |  | 
13 | COc1ncc(-c2cn3c(=O)ccnc3cc2F)cc1NS(=O)(=O)c1ccc(F)cc1F [compound 112] |  |  |  | 40.8 | 3.6 | 
14 | COc1ncc(-c2cn3c(=O)ccnc3cc2F)cc1NS(=O)(=O)c1ccccc1F [compound 113] |  |  |  | -7.6 | 4.6 | 
15 | COc1ncc(-c2cn3c(=O)ccnc3cc2F)cc1NS(=O)(=O)c1c(F)cccc1F [compound 114] |  |  |  | 53 | -1.2 | 
16 | COc1ncc(-c2cn3c(=O)ccnc3cc2F)cc1NS(=O)(=O)c1cccc(F)c1 [compound 115] |  |  |  | 43.6 | 6.5 | 
17 | COc1ncc(-c2cn3c(=O)ccnc3cc2F)cc1NS(=O)(=O)c1cc(F)ccc1F [compound 116] |  |  |  | 52.3 | 6.7 | 
18 | COc1ncc(-c2cn3c(=O)ccnc3cc2F)cc1NS(=O)(=O)c1ccc(F)cc1Cl [compound 117] |  |  |  | 63.7 | 16.6 | 
19 | COc1ncc(-c2cn3c(=O)ccnc3cc2F)cc1NS(=O)(=O)c1ccc(C(F)(F)F)cc1 [compound 118] |  |  |  | 27.8 | 11.5 | 
20 | COc1ncc(-c2cn3c(=O)ccnc3cc2C)cc1NS(=O)(=O)c1ccc(F)cc1F [compound 121, 2,4-difluoro-N-(2-methoxy-5-(8-methyl-4-oxo-4H-pyrido[1,2-a]pyrimidin-7-yl)pyridin-3-yl)benzsulfamide] |  |  |  | -27.1 | -2.2 | 
21 | COc1ncc(-c2cn3c(=O)ccnc3cc2C)cc1NS(=O)(=O)c1ccccc1Cl [compound 122] |  |  |  | -26.6 | 1.2 | 
